The target in one test is DDR2 (Homo sapiens (Human), UniProt Q16832). The test is described as follows: DDR2 binding assay (LanthaScreen Europium Kinase Binding assay). The method, then:
(§1) DDR1 and DDR2 binding assays were performed using Life Technologies LanthaScreen™ Europium Kinase Binding assay. The compounds were incubated with 5 nM DDR1 (Carna Biosciences) or 5 nM DDR2 (Life Technologies) for 1 hour at room temperature in white 384-well OptiPlate (PerkinElmer), containing 20 nM or 10 nM Kinase Tracer 178 respectively and 2 nM Europium labelled anti-GST antibody (Life Technologies) in assay buffer (50 mM HEPES pH 7.5, 10 mM MgCl2, 1 mM EGTA and 0.01% BRIJ35).
(§2) The ratio of fluorescence emission 665 nm/615 nm after excitation at 340 nm was obtained using the Tecan Spark 20M plate reader. IC50 values were determined in GraphPad Prism 7.0 software, using 4 parameter model: log(inhibitor) vs. response. IC50 values were converted in Ki using the Cheng-Prusoff equation (Ki=IC50/(1+[Tracer]/Kd).
On the technique in general: TR-FRET usually uses a lanthanide donor and a delayed reading to cut background.

The target in test [1] is T1, DDR1 (Homo sapiens (Human), UniProt Q08345). The test is described as follows: DDR1 cell based assay (PathHunter U2OS DDR1 assay). Particulars: U2OS-DDR1 cells, Type II Collagen stimulation, potency class. The method, then: The inhibition of DDR1 receptor activation by compounds was evaluated by PathHunter® U2OS DDR1 assay (Eurofins DiscoverX), according to the manufacturer's instructions. Briefly, U2OS-DDR1 cells were seeded in white 384-well plates at a density of 5000 cells/well and incubated for 2 hours at 37° C. and 5% CO2. Cells were then treated with compounds at different concentrations and incubated for 30 minutes, before stimulation with bovine Type II Collagen 20 μg/ml and incubation overnight at 37° C. and 5% CO2. PathHunter Detection Reagents were prepared according to the protocol provided by DiscoverX and 20 μl/well of this mix were added to each well. After incubating the plates for 1 hour at room temperature in the dark, luminescence signal was acquired with a plate reader. Raw data were normalized to vehicle control (0% for normalization) and positive control (100% for normalization; cells treated with 20 μg/ml collagen II) and IC50 parameters were calculated in GraphPad Prism 8.0 software, using sigmoidal dose-response curve fitting with variable slope.

The target of test [2] is T1, DDR1. The test can be described thus: DDR1 binding assay (LanthaScreen Europium Kinase Binding assay). The method, then:
as §1, §2

Setting [3] is: potency class, read-out: Ki DDR2.
Setting [4] is: potency class, read-out: Ki DDR1.

Among the data in patent US20240199635A1, “TETRAHYDROTHIENO PYRIDINE DERIVATIVES AS DDRS INHIBITORS” (CHIESI FARMACEUTICI S.P.A., priority 2021, published 2024) are Ki and IC50 values, retold here.

Usually pKi stands for the Ki on a negative log10 scale, so that one unit is a factor of ten. One may read the pIC50 as the IC50 on a negative log10 scale, so that one unit is a factor of ten.

pIC50, pKi: −log10 of the molar value. Like-named read-outs stand apart in the source and are kept apart here.

DDR2, sequence (Q16832 22-855): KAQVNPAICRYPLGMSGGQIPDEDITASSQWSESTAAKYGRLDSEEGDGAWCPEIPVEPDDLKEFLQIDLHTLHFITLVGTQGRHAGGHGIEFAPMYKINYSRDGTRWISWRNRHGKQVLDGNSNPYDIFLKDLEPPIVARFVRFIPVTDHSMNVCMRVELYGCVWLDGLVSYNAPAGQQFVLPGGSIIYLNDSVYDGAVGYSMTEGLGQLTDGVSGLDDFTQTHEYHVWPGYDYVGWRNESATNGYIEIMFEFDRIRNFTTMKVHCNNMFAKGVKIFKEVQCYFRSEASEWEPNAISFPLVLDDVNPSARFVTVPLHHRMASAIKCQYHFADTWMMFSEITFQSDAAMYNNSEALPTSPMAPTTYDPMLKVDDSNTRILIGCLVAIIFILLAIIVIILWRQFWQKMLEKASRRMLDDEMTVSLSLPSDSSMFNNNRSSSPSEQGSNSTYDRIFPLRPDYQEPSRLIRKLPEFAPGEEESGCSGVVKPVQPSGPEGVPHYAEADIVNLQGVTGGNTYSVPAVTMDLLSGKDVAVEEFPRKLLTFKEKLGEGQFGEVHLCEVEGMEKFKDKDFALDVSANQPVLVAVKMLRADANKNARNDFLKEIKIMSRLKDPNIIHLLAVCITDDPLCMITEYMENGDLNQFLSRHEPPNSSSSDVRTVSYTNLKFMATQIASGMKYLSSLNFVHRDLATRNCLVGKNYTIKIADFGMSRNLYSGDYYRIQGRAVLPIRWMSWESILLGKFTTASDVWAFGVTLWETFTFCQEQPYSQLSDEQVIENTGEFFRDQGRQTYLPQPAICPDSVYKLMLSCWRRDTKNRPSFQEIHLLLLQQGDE
T1 sequence (Q08345 19-913): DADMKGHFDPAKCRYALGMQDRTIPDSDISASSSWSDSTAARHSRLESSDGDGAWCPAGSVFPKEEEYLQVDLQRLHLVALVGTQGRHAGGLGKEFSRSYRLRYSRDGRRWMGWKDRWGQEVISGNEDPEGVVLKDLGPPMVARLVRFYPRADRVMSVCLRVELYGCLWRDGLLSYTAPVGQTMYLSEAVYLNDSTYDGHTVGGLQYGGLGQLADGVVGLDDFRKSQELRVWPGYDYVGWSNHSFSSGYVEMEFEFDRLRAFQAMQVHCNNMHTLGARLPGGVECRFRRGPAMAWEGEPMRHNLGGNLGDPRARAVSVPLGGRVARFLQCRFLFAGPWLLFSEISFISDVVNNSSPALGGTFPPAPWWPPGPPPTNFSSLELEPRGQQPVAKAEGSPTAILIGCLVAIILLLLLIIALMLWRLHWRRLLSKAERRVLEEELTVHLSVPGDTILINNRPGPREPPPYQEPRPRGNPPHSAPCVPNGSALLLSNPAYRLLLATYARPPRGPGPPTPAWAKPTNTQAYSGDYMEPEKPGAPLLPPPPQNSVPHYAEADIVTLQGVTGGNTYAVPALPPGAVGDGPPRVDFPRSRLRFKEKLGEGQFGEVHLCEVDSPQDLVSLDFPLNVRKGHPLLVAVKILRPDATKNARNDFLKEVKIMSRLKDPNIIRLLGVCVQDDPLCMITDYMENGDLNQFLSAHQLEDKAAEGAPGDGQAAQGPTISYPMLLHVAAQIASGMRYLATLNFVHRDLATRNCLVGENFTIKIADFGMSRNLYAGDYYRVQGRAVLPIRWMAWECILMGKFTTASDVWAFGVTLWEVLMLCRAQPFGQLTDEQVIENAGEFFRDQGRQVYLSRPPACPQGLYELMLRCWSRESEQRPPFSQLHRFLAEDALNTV

For `CN1CCN(Cc2cc(NC(=O)c3csc4c3CCN(Cc3cccnc3)C4)cc(C(F)(F)F)c2)CC1` [Example 1, N-(3-((4-methylpiperazin-1-yl)methyl)-5-(trifluoromethyl)phenyl)-6-(pyridin-3-ylmethyl)-4,5,6,7-tetrahydrothieno[2,3-c]pyridine-3-carboxamide], the negative logarithm of the Ki (pKi) is 7.30 to 7.60 at DDR2 (setting [3]) and more than 7.60 at DDR1 [2] (setting [4]). The same compound gave a negative logarithm of the IC50 (pIC50) on DDR1 [1] of 7.10 to 7.30.

As to `CN1CCN(Cc2cc(NC(=O)c3csc4c3CCN(Cc3cncnc3)C4)cc(C(F)(F)F)c2)CC1` [Example 2, N-(3-((4-methylpiperazin-1-yl)methyl)-5-(trifluoromethyl)phenyl)-6-(pyrimidin-5-ylmethyl)-4,5,6,7-tetrahydrothieno[2,3-c]pyridine-3-carboxamide], the negative logarithm of the Ki (pKi) is 7.10 to 7.30 at DDR2 (setting [3]) and 7.30 to 7.60 at DDR1 [2] (setting [4]). For the same compound, the negative logarithm of the IC50 (pIC50) against DDR1 [1] is 7.10 to 7.30.

As for `Cc1cn(-c2cc(NC(=O)c3csc4c3CCN(Cc3cncnc3)C4)cc(C(F)(F)F)c2)cn1` [Example 3, N-(3-(4-methyl-1H-imidazol-1-yl)-5-(trifluoromethyl)phenyl)-6-(pyrimidin-5-ylmethyl)-4,5,6,7-tetrahydrothieno[2,3-c]pyridine-3-carboxamide], the pKi on DDR2 (setting [3]) and at DDR1 [2] (setting [4]) was more than 7.60 each time. On DDR1 [1], this compound showed a pIC50 of 7.30 to 7.60.

In the case of `CC(C)(c1cc(NC(=O)c2csc3c2CCN(Cc2cncnc2)C3)no1)C(F)(F)F` [Example 6, 6-(pyrimidin-5-ylmethyl)-N-(5-(1,1,1-trifluoro-2-methylpropan-2-yl)isoxazol-3-yl)-4,5,6,7-tetrahydrothieno[2,3-c]pyridine-3-carboxamide], the pKi on DDR2 (setting [3]) and at DDR1 [2] (setting [4]) was more than 7.60 each time. On DDR1 [1], this compound gave a pIC50 of 7.30 to 7.60.

As for `O=C(Nc1cc(F)cc(OC(F)(F)F)c1)c1csc2c1CCN(Cc1cncnc1)C2` [Example 7, N-(3-fluoro-5-(trifluoromethoxy)phenyl)-6-(pyrimidin-5-ylmethyl)-4,5,6,7-tetrahydrothieno[2,3-c]pyridine-3-carboxamide], the pKi on DDR2 (setting [3]) and at DDR1 [2] (setting [4]) was more than 7.60 each time. Further, at DDR1 [1], the pIC50 is more than 7.60.

`O=C(Nc1ccc(F)c(C(F)(F)F)c1)c1csc2c1CCN(Cc1cncnc1)C2` [Example 8, N-(4-fluoro-3-(trifluoromethyl)phenyl)-6-(pyrimidin-5-ylmethyl)-4,5,6,7-tetrahydrothieno[2,3-c]pyridine-3-carboxamide]: the pKi at DDR2 (setting [3]) and on DDR1 [2] (setting [4]) was more than 7.60 throughout. This compound also showed a pIC50 on DDR1 [1] of 7.10 to 7.30.

As to `CC(F)(F)c1cccc(NC(=O)c2csc3c2CCN(Cc2cncnc2)C3)c1` [Example 9, N-(3-(1,1-difluoroethyl)phenyl)-6-(pyrimidin-5-ylmethyl)-4,5,6,7-tetrahydrothieno[2,3-c]pyridine-3-carboxamide], the pKi on DDR2 (setting [3]) and on DDR1 [2] (setting [4]) was more than 7.60 each time. The compound also showed a negative logarithm of the IC50 (pIC50) against DDR1 [1] of 7.10 to 7.30.

As to `O=C(Nc1ccc(F)c(OC(F)(F)F)c1)c1csc2c1CCN(Cc1cncnc1)C2` [Example 10, N-(4-fluoro-3-(trifluoromethoxy)phenyl)-6-(pyrimidin-5-ylmethyl)-4,5,6,7-tetrahydrothieno[2,3-c]pyridine-3-carboxamide], the pKi on DDR2 (setting [3]) and at DDR1 [2] (setting [4]) was more than 7.60 in each case. The compound further had a negative-log IC50 (pIC50) against DDR1 [1] of more than 7.60.

Take `O=C(Nc1cc(C(F)(F)F)ccc1F)c1csc2c1CCN(Cc1cncnc1)C2` [Example 11, N-(2-fluoro-5-(trifluoromethyl)phenyl)-6-(pyrimidin-5-ylmethyl)-4,5,6,7-tetrahydrothieno[2,3-c]pyridine-3-carboxamide]: the negative logarithm of the Ki (pKi) on DDR2 (setting [3]) and at DDR1 [2] (setting [4]) was more than 7.60 throughout. At DDR1 [1], this compound gave a negative-log IC50 (pIC50) of 7.10 to 7.30.

As for `O=C(Nc1cc(F)cc(OC(F)F)c1)c1csc2c1CCN(Cc1cncnc1)C2` [Example 12, N-(3-(difluoromethoxy)-5-fluorophenyl)-6-(pyrimidin-5-ylmethyl)-4,5,6,7-tetrahydrothieno[2,3-c]pyridine-3-carboxamide], the negative logarithm of the Ki (pKi) on DDR2 (setting [3]) and at DDR1 [2] (setting [4]) was more than 7.60 each time. For the same compound, the negative-log IC50 (pIC50) on DDR1 [1] was 7.30 to 7.60.

As for `O=C(Nc1cccc(OC(F)F)c1)c1csc2c1CCN(Cc1cncnc1)C2` [Example 13, N-(3-(difluoromethoxy)phenyl)-6-(pyrimidin-5-ylmethyl)-4,5,6,7-tetrahydrothieno[2,3-c]pyridine-3-carboxamide], the negative-log Ki (pKi) on DDR2 (setting [3]) and at DDR1 [2] (setting [4]) was more than 7.60 throughout. On DDR1 [1], the negative logarithm of the IC50 (pIC50) is 7.10 to 7.30.

As for `N#Cc1cc(NC(=O)c2csc3c2CCN(Cc2cncnc2)C3)cc(C(F)(F)F)c1` [Example 14, N-(3-cyano-5-(trifluoromethyl)phenyl)-6-(pyrimidin-5-ylmethyl)-4,5,6,7-tetrahydrothieno[2,3-c]pyridine-3-carboxamide], the pKi at DDR2 (setting [3]) and at DDR1 [2] (setting [4]) was more than 7.60 in each case. Also, on DDR1 [1], the pIC50 was more than 7.60.

Consider `Cn1nc(C(C)(C)C)cc1NC(=O)c1csc2c1CCN(Cc1nccnc1N)C2` [Example 15, 6-((3-aminopyrazin-2-yl)methyl)-N-(3-(tert-butyl)-1-methyl-1H-pyrazol-5-yl)-4,5,6,7-tetrahydrothieno[2,3-c]pyridine-3-carboxamide], for which the pKi on DDR2 (setting [3]) and on DDR1 [2] (setting [4]) was more than 7.60 throughout. This compound also gave a negative-log IC50 (pIC50) against DDR1 [1] of 7.30 to 7.60.

Regarding `COCC(=O)Nc1ccncc1CN1CCc2c(C(=O)Nc3cccc(C(F)(F)F)c3)csc2C1` [Example 17, 6-((4-(2-methoxyacetamido)pyridin-3-yl)methyl)-N-(3-(trifluoromethyl)phenyl)-4,5,6,7-tetrahydrothieno[2,3-c]pyridine-3-carboxamide], the negative-log Ki (pKi) at DDR2 (setting [3]) was 7.30 to 7.60; at DDR1 [2] (setting [4]) it was more than 7.60. Also, the negative logarithm of the IC50 (pIC50) against DDR1 [1] was 7.30 to 7.60.

In the case of `N#Cc1cncc(CN2CCc3c(C(=O)Nc4cccc(C(F)(F)F)c4)csc3C2)c1` [Example 19, 6-((5-cyanopyridin-3-yl)methyl)-N-(3-(trifluoromethyl)phenyl)-4,5,6,7-tetrahydrothieno[2,3-c]pyridine-3-carboxamide], the pKi on DDR2 (setting [3]) and on DDR1 [2] (setting [4]) was more than 7.60 in each case. The same compound gave a pIC50 at DDR1 [1] of 7.30 to 7.60.

As to `O=C(Nc1cccc(C(F)(F)F)c1)c1csc2c1CCN(Cc1cncc(Cl)c1)C2` [Example 20, 6-((5-chloropyridin-3-yl)methyl)-N-(3-(trifluoromethyl)phenyl)-4,5,6,7-tetrahydrothieno[2,3-c]pyridine-3-carboxamide], the negative-log Ki (pKi) at DDR2 (setting [3]) and at DDR1 [2] (setting [4]) was more than 7.60 each time. Also, the pIC50 against DDR1 [1] is 7.30 to 7.60.

Consider `COc1cncc(CN2CCc3c(C(=O)Nc4cccc(C(F)(F)F)c4)csc3C2)c1` [Example 21, 6-((5-methoxypyridin-3-yl)methyl)-N-(3-(trifluoromethyl)phenyl)-4,5,6,7-tetrahydrothieno[2,3-c]pyridine-3-carboxamide], for which the pKi at DDR2 (setting [3]) and on DDR1 [2] (setting [4]) was more than 7.60 each time. For the same compound, the pIC50 on DDR1 [1] is more than 7.60.

`Cc1cncc(CN2CCc3c(C(=O)Nc4cccc(C(F)(F)F)c4)csc3C2)c1` [Example 22, 6-((5-methylpyridin-3-yl)methyl)-N-(3-(trifluoromethyl)phenyl)-4,5,6,7-tetrahydrothieno[2,3-c]pyridine-3-carboxamide]: the pKi on DDR2 (setting [3]) and at DDR1 [2] (setting [4]) was more than 7.60 in each case. This compound had a pIC50 at DDR1 [1] of 7.10 to 7.30.

In the case of `O=C(Nc1cccc(C(F)(F)F)c1)c1csc2c1CCN(Cc1cncc(C(F)(F)F)c1)C2` [Example 23, N-(3-(trifluoromethyl)phenyl)-6-((5-(trifluoromethyl)pyridin-3-yl)methyl)-4,5,6,7-tetrahydrothieno[2,3-c]pyridine-3-carboxamide], the negative logarithm of the Ki (pKi) on DDR2 (setting [3]) and at DDR1 [2] (setting [4]) was more than 7.60 throughout. Besides, at DDR1 [1], the negative logarithm of the IC50 (pIC50) was 7.30 to 7.60.

With `O=C(Nc1cccc(C(F)(F)F)c1)c1csc2c1CCN(Cc1cncc(F)c1)C2` [Example 24, 6-((5-fluoropyridin-3-yl)methyl)-N-(3-(trifluoromethyl)phenyl)-4,5,6,7-tetrahydrothieno[2,3-c]pyridine-3-carboxamide], the pKi at DDR2 (setting [3]) and on DDR1 [2] (setting [4]) was more than 7.60 each time. Also, the negative-log IC50 (pIC50) on DDR1 [1] was 7.30 to 7.60.

For the compound `CN1CCN(Cc2cc(NC(=O)c3csc4c3CCN(c3cncnc3)C4)cc(C(F)(F)F)c2)CC1` [Example C1, N-(3-((4-methylpiperazin-1-yl)methyl)-5-(trifluoromethyl)phenyl)-6-(pyrimidin-5-yl)-4,5,6,7-tetrahydrothieno[2,3-c]pyridine-3-carboxamide], the pKi on DDR2 (read-out: DDR2 Ki) was 6.76; on DDR1 [2] (read-out: DDR1 Ki), 6.62.

Regarding `Cc1cn(-c2cc(NC(=O)c3cc4c(s3)CN(c3cncnc3)CC4)cc(C(F)(F)F)c2)cn1` [Example C2], the figures for the negative-log Ki (pKi) at DDR2 (read-out: DDR2 Ki) and at DDR1 [2] (read-out: DDR1 Ki) were 4.30 and 4.54, respectively.
